The values that follow are results of earlier work, collected in article PMC7765247 (Bioorganic & medicinal chemistry letters, 2020).

In this data set the test system is PC-3 cells. Conditions: anoxia (< 10 ppm oxygen in gas phase); ref Patterson el. al.

As for `CS(=O)(=O)OCCN(CCBr)c1c(C(=O)NCCO)cc([N+](=O)[O-])cc1[N+](=O)[O-]` [Compound 16, PR-104A], the “hypoxia-selectivity ratio in PC-3 cells” value is on record as “approximately 15”.
